Values joined by “and” are separate entries in the source; they are usually repeats but may differ in a detail not shown here. Identical values can stand only once. ± gives the expanded uncertainty stated by the source.
Conditions: for speed of sound / mass density / vapor or sublimation pressure / viscosity: Liquid; for speed of sound: Frequency=3 MHz, Single path-length method; for mass density: Vibrating tube method; for vapor or sublimation pressure: Ebulliometric method (Recirculating still); for surface tension liquid-gas: Drop volume; for viscosity: Capillary tube (Ostwald / Ubbelohde) method

CCc1cccs1 [2-ethylthiophene]
Conditions | mass density | speed of sound [m/s] | viscosity [mPa·s]
313.15 K, 100 kPa | 973.34 ± 0.54 kg/m3 and 973.3 ± 0.54 kg/m3 | 1237.7 ± 1.1 | –
313.15 K, 2000 kPa | 975 ± 0.54 kg/m3 | – | –
313.15 K, 5000 kPa | 977.54 ± 0.54 kg/m3 | – | –
313.15 K, 7000 kPa | 979.22 ± 0.54 kg/m3 | – | –
313.15 K, 10000 kPa | 981.68 ± 0.54 kg/m3 | – | –
313.15 K, 15000 kPa | 985.61 ± 0.55 kg/m3 | – | –
313.15 K, 20000 kPa | 989.42 ± 0.55 kg/m3 | – | –
313.15 K, 25000 kPa | 993.09 ± 0.54 kg/m3 | – | –
313.15 K, 30000 kPa | 996.63 ± 0.54 kg/m3 | – | –
313.15 K, 35000 kPa | 1000.06 ± 0.54 kg/m3 | – | –
313.15 K, 40000 kPa | 1003.38 ± 0.54 kg/m3 | – | –
313.15 K, 45000 kPa | 1006.6 ± 0.55 kg/m3 | – | –
313.15 K, 50000 kPa | 1009.71 ± 0.55 kg/m3 | – | –
313.15 K, 55000 kPa | 1012.75 ± 0.56 kg/m3 | – | –
313.15 K, 60000 kPa | 1015.69 ± 0.56 kg/m3 | – | –
313.15 K, 65000 kPa | 1018.54 ± 0.57 kg/m3 | – | –
315.65 K, 100 kPa | 970.77 ± 0.54 kg/m3 | 1227.7 ± 1.1 | 0.613 ± 0.007
318.15 K, 100 kPa | 968.32 ± 0.54 kg/m3 and 968.24 ± 0.54 kg/m3 | 1218 ± 1.1 | 0.5981 ± 0.0069
318.15 K, 2000 kPa | 970.02 ± 0.54 kg/m3 | – | –
318.15 K, 5000 kPa | 972.64 ± 0.54 kg/m3 | – | –
318.15 K, 7000 kPa | 974.36 ± 0.54 kg/m3 | – | –
318.15 K, 10000 kPa | 976.86 ± 0.55 kg/m3 | – | –
318.15 K, 15000 kPa | 980.93 ± 0.55 kg/m3 | – | –
318.15 K, 20000 kPa | 984.83 ± 0.55 kg/m3 | – | –
318.15 K, 25000 kPa | 988.58 ± 0.55 kg/m3 | – | –
318.15 K, 30000 kPa | 992.22 ± 0.55 kg/m3 | – | –
318.15 K, 35000 kPa | 995.71 ± 0.54 kg/m3 | – | –
318.15 K, 40000 kPa | 999.11 ± 0.54 kg/m3 | – | –
318.15 K, 45000 kPa | 1002.39 ± 0.54 kg/m3 | – | –
318.15 K, 50000 kPa | 1005.57 ± 0.55 kg/m3 | – | –
318.15 K, 55000 kPa | 1008.66 ± 0.55 kg/m3 | – | –
318.15 K, 60000 kPa | 1011.66 ± 0.56 kg/m3 | – | –
318.15 K, 65000 kPa | 1014.56 ± 0.56 kg/m3 | – | –
320.65 K, 100 kPa | 965.71 ± 0.54 kg/m3 | 1208.3 ± 1.1 | 0.584 ± 0.0068
323.15 K, 100 kPa | 963.21 ± 0.54 kg/m3 and 963.18 ± 0.54 kg/m3 | 1198 ± 1.1 | 0.5702 ± 0.0067
323.15 K, 2000 kPa | 964.97 ± 0.54 kg/m3 | – | –
323.15 K, 5000 kPa | 967.69 ± 0.54 kg/m3 | – | –
323.15 K, 7000 kPa | 969.44 ± 0.55 kg/m3 | – | –
323.15 K, 10000 kPa | 972.03 ± 0.55 kg/m3 | – | –
323.15 K, 15000 kPa | 976.2 ± 0.55 kg/m3 | – | –
323.15 K, 20000 kPa | 980.22 ± 0.55 kg/m3 | – | –
323.15 K, 25000 kPa | 984.06 ± 0.55 kg/m3 | – | –
323.15 K, 30000 kPa | 987.78 ± 0.55 kg/m3 | – | –
323.15 K, 35000 kPa | 991.35 ± 0.55 kg/m3 | – | –
323.15 K, 40000 kPa | 994.81 ± 0.54 kg/m3 | – | –
323.15 K, 45000 kPa | 998.17 ± 0.54 kg/m3 | – | –
323.15 K, 50000 kPa | 1001.41 ± 0.54 kg/m3 | – | –
323.15 K, 55000 kPa | 1004.56 ± 0.55 kg/m3 | – | –
323.15 K, 60000 kPa | 1007.62 ± 0.55 kg/m3 | – | –
323.15 K, 65000 kPa | 1010.59 ± 0.56 kg/m3 | – | –
325.65 K, 100 kPa | 960.64 ± 0.54 kg/m3 | 1188.3 ± 1.1 | 0.5566 ± 0.0067
328.15 K, 100 kPa | 958.12 ± 0.54 kg/m3 and 958.1 ± 0.54 kg/m3 | 1179.1 ± 1.1 | 0.5437 ± 0.0066
328.15 K, 2000 kPa | 959.94 ± 0.54 kg/m3 | – | –
328.15 K, 5000 kPa | 962.71 ± 0.54 kg/m3 | – | –
328.15 K, 7000 kPa | 964.53 ± 0.55 kg/m3 | – | –
328.15 K, 10000 kPa | 967.18 ± 0.55 kg/m3 | – | –
328.15 K, 15000 kPa | 971.45 ± 0.55 kg/m3 | – | –
328.15 K, 20000 kPa | 975.56 ± 0.55 kg/m3 | – | –
328.15 K, 25000 kPa | 979.5 ± 0.55 kg/m3 | – | –
328.15 K, 30000 kPa | 983.31 ± 0.55 kg/m3 | – | –
328.15 K, 35000 kPa | 986.98 ± 0.55 kg/m3 | – | –
328.15 K, 40000 kPa | 990.51 ± 0.55 kg/m3 | – | –
328.15 K, 45000 kPa | 993.94 ± 0.55 kg/m3 | – | –
328.15 K, 50000 kPa | 997.24 ± 0.54 kg/m3 | – | –
328.15 K, 55000 kPa | 1000.47 ± 0.54 kg/m3 | – | –
328.15 K, 60000 kPa | 1003.58 ± 0.55 kg/m3 | – | –
328.15 K, 65000 kPa | 1006.6 ± 0.55 kg/m3 | – | –
330.65 K, 100 kPa | 955.55 ± 0.54 kg/m3 | 1168.7 ± 1.1 | 0.5313 ± 0.0066
333.15 K, 100 kPa | 952.99 ± 0.54 kg/m3 and 953 ± 0.54 kg/m3 | 1159.1 ± 1.1 | 0.519 ± 0.0065
333.15 K, 2000 kPa | 954.85 ± 0.54 kg/m3 | – | –
333.15 K, 5000 kPa | 957.72 ± 0.55 kg/m3 | – | –
333.15 K, 7000 kPa | 959.58 ± 0.55 kg/m3 | – | –
333.15 K, 10000 kPa | 962.31 ± 0.55 kg/m3 | – | –
333.15 K, 15000 kPa | 966.72 ± 0.55 kg/m3 | – | –
333.15 K, 20000 kPa | 970.93 ± 0.55 kg/m3 | – | –
333.15 K, 25000 kPa | 974.97 ± 0.55 kg/m3 | – | –
333.15 K, 30000 kPa | 978.86 ± 0.55 kg/m3 | – | –
333.15 K, 35000 kPa | 982.61 ± 0.55 kg/m3 | – | –
333.15 K, 40000 kPa | 986.22 ± 0.55 kg/m3 | – | –
333.15 K, 45000 kPa | 989.73 ± 0.55 kg/m3 | – | –
333.15 K, 50000 kPa | 993.09 ± 0.55 kg/m3 | – | –
333.15 K, 55000 kPa | 996.39 ± 0.54 kg/m3 | – | –
333.15 K, 60000 kPa | 999.56 ± 0.54 kg/m3 | – | –
333.15 K, 65000 kPa | 1002.62 ± 0.55 kg/m3 | – | –
335.65 K, 100 kPa | 950.44 ± 0.54 kg/m3 | 1149.9 ± 1.1 | 0.5072 ± 0.0065
338.15 K, 100 kPa | 947.86 ± 0.54 kg/m3 and 947.89 ± 0.54 kg/m3 | 1140.3 ± 1.1 | 0.4965 ± 0.0064
338.15 K, 2000 kPa | 949.78 ± 0.54 kg/m3 | – | –
338.15 K, 5000 kPa | 952.72 ± 0.55 kg/m3 | – | –
338.15 K, 7000 kPa | 954.65 ± 0.55 kg/m3 | – | –
338.15 K, 10000 kPa | 957.46 ± 0.55 kg/m3 | – | –
338.15 K, 15000 kPa | 961.97 ± 0.55 kg/m3 | – | –
338.15 K, 20000 kPa | 966.32 ± 0.55 kg/m3 | – | –
338.15 K, 25000 kPa | 970.44 ± 0.55 kg/m3 | – | –
338.15 K, 30000 kPa | 974.41 ± 0.55 kg/m3 | – | –
338.15 K, 35000 kPa | 978.26 ± 0.55 kg/m3 | – | –
338.15 K, 40000 kPa | 981.96 ± 0.55 kg/m3 | – | –
338.15 K, 45000 kPa | 985.53 ± 0.55 kg/m3 | – | –
338.15 K, 50000 kPa | 988.98 ± 0.55 kg/m3 | – | –
338.15 K, 55000 kPa | 992.31 ± 0.55 kg/m3 | – | –
338.15 K, 60000 kPa | 995.56 ± 0.55 kg/m3 | – | –
338.15 K, 65000 kPa | 998.71 ± 0.54 kg/m3 | – | –

Conditions | surface tension liquid-gas [mN/m] | vapor or sublimation pressure [kPa]
315.55 K | – | 3.01 ± 0.1
315.65 K | 28.16 ± 0.28 | –
318.15 K | 27.84 ± 0.28 | –
320.65 K | 27.54 ± 0.28 | –
321.73 K | – | 4.095 ± 0.1
323.15 K | 27.27 ± 0.28 | –
325.65 K | 26.93 ± 0.28 | –
326.03 K | – | 5.05 ± 0.1
328.15 K | 26.69 ± 0.28 | –
330.65 K | 26.36 ± 0.28 | –
330.78 K | – | 6.285 ± 0.1
333.15 K | 26.03 ± 0.27 | –
335.65 K | 25.74 ± 0.27 | –
336.67 K | – | 8.17 ± 0.1
338.15 K | 25.45 ± 0.27 | –
342 K | – | 10.22 ± 0.1
346.57 K | – | 12.34 ± 0.1
351.71 K | – | 15.14 ± 0.1
356.68 K | – | 18.34 ± 0.1
360.83 K | – | 21.48 ± 0.1
365.1 K | – | 24.99 ± 0.1
370.4 K | – | 30.07 ± 0.11
374.16 K | – | 34.19 ± 0.11
379.56 K | – | 40.88 ± 0.11
382.77 K | – | 45.27 ± 0.11
387.16 K | – | 51.94 ± 0.12
390.75 K | – | 57.93 ± 0.12
394.79 K | – | 65.36 ± 0.13
397.67 K | – | 71.07 ± 0.13
401.74 K | – | 79.78 ± 0.14
404.64 K | – | 86.5 ± 0.14
406.64 K | – | 91.35 ± 0.14
409.15 K | – | 97.8 ± 0.15
410.46 K | – | 101.33 ± 0.15

Source: the NIST ThermoML archive (doi:10.1021/acs.jced.8b00153)
